In patent US7160874B2, “Phenylalanine derivatives” (Ajinomoto Co., Inc., priority 1999, dated 2007):
Values belong to the compound of their own block, whether it stands above or below them.

Tests used:
integrin α4β1 = target: T1, integrin α4β1 (Homo sapiens, UniProt P05556+P13612); test: VCAM antagonist activity (VCAM-1/α4β1 binding assay); format: cell-based; settings: Jurkat cells binding to VCAM-1; read-out: VCAM antagonistic activity (IC50) α4β1
T1 construct: cell strain Jurkat (ATCC TIB-152) of human T cells, known to express integrin α4β1; host or cells: Jurkat (human T cell line)
Description: (Test Example) VCAM Antagonist Activity (VCAM-1/α4β1 Binding Assay):
The capacity of a test substance antagonistic to the binding of cell strain Jurkat (ATCC TIB-152) of human T cells, known to express integrin α4β1, to VCAM-1 was determined.
(§1) 100 μl/well of a solution (500 ng/ml) of recombinant human VCAM-1 (R & D systems) solution diluted with buffer A (0.1 M NaHCO3, pH 9.6) was added to a micro titer plate having 96 wells (Nunc Maxisorp). After the incubation at 4° C. overnight, unbound VCAM-1 was removed by washing once with PBS. After completion of the washing, a buffer (buffer B) obtained by diluting Block Ace® (Dainippon Pharmaceutical Co., Ltd.) with PBS to 1/4 concentration was added in an amount of 150 μl/well. After the incubation at room temperature for 1 hour, buffer B was removed and the plate was washed with PBS once.
Jurkat cells were washed with Dulbecco modified Eagle medium (SIGMA, hereinafter referred to as “DMEM”) twice and then incubated in DMEM containing 10 μg/ml of Calcein-AM (Wako Pure Chemical Industries, Ltd.) at 37° C. in dark place for 30 minutes to label with fluorescence. The cells were again suspended in a binding buffer (20 mM HEPES, DMEM containing 0.1% BSA).
(§2) 50 μl of a test substance of various concentrations obtained by the dilution with the binding buffer was added to the plate. Immediately thereafter, 50 μl (final volume: 100 μl/well) of the fluorescent Jurkat cells (4×10^6 cells/ml) were added thereto, and they were incubated at room temperature for 30 minutes. After the shaking on a plate shaker (IKA MTS-4) at 800 rpm for 30 seconds, the solution was immediately removed to remove the unbound cells. The fluorescence quantity of the bound cells remaining in the wells was determined with a fluorescent plate reader (Wallac 1420 ARVO multi-label counter) (filter excitation wave length: 485 nm, emission wave length: 535 nm). The fluorescent strength thus obtained is proportional to the number of Jurkat cells bound to VCAM-1 and remaining on the plate. The binding rate of each test material in various concentrations was determined while the fluorescent strength of the test material-free well was determined to be 100%. The concentration IC50 for the 50% binding inhibition was calculated.
(§3) The activities were classified into group A wherein IC50 was 0.02 μmol/l or below, group B wherein IC50 was higher than 0.02 μmol/l and not above 0.1 μmol/l, group C wherein IC50 was higher than 0.1 μmol/l and not above 2 μmol/l, and group D wherein IC50 was higher than 2 μmol/l and not above 10 μmol/l.

integrin α4β7 = target: T2, integrin α4β7 (Homo sapiens, UniProt P13612+P26010); test: VCAM antagonistic activity (VCAM-1/α4β7 binding assay); format: cell-based; settings: RPMI-8866 cells binding to VCAM-1; read-out: VCAM antagonistic activity (IC50) α4β7
T2 construct: lymphoma cell strain RPMI-8866 of human B cells, known to express integrin α4β7; endogenous in cells; host or cells: RPMI-8866 (human B lymphoma cell line)
T2 sequence (P13612 34-1032): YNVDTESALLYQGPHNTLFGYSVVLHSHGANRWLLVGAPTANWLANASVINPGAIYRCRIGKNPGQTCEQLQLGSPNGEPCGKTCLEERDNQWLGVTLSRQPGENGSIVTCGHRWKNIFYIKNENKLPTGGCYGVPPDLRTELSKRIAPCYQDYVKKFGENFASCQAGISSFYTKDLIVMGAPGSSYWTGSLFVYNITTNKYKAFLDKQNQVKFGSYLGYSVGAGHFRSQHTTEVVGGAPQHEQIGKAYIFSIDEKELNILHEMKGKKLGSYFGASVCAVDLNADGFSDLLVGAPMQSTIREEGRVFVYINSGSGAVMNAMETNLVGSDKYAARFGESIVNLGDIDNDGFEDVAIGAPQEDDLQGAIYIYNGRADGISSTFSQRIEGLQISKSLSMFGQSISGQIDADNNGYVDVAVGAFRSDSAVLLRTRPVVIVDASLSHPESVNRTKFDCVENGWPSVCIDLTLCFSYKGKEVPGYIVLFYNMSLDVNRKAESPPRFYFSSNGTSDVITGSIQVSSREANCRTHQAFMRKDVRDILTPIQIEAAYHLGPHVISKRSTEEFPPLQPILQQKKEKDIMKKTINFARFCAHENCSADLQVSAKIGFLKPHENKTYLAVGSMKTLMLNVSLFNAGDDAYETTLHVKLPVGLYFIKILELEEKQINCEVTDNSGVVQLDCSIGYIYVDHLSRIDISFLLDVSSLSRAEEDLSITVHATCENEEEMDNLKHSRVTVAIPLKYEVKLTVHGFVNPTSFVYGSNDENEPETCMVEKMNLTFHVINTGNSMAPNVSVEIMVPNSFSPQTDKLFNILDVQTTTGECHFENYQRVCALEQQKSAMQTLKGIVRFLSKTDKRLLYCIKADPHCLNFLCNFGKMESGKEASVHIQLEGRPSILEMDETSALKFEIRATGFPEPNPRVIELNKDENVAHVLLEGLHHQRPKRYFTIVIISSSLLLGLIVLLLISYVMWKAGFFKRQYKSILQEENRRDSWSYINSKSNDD
T2 sequence (P26010 20-798): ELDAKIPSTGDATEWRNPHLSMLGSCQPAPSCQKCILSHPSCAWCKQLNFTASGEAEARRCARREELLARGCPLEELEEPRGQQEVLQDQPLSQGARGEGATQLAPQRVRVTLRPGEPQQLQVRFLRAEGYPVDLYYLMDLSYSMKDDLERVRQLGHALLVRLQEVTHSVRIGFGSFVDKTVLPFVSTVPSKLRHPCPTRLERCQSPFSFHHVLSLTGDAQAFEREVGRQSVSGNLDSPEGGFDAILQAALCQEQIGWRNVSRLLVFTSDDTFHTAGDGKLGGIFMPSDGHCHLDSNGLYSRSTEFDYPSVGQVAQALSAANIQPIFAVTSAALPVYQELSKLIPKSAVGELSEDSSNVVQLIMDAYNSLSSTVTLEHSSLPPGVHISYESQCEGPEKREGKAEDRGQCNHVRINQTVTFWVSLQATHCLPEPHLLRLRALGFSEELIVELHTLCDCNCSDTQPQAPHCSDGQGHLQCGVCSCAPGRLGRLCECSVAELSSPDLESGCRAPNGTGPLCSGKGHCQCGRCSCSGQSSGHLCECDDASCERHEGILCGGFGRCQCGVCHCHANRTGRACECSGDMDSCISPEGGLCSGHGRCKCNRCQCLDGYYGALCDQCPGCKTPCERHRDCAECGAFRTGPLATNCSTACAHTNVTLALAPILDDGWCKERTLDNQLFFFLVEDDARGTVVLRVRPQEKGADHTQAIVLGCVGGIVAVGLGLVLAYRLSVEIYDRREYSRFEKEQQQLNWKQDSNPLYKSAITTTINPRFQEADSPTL
Description: (Test Example) VCAM Antagonistic Activity (VCAM-1/α4β7 Binding Assay):
The capacity of a test substance antagonistic to the binding of lymphoma cell strain RPMI-8866 of human B cells, known to express integrin α4β7, to VCAM-1 was determined.
as §1
RPMI-8866 cells were incubated in Dulbecco modified Eagle medium containing 10 μg/ml of Calcein-AM (Wako Pure Chemical Industries, Ltd.) (SIGMA, hereinafter referred to as “DMEM”) at 37° C. for 30 minutes to label with fluorescence. The cells were again suspended in a binding buffer (20 mM HEPES, DMEM containing 0.1% BSA) containing 4 mM of MnCl2.
as §2, with “RPMI-8866” for “Jurkat”
as §3

T1 sequence (P05556 21-798, one chain of several): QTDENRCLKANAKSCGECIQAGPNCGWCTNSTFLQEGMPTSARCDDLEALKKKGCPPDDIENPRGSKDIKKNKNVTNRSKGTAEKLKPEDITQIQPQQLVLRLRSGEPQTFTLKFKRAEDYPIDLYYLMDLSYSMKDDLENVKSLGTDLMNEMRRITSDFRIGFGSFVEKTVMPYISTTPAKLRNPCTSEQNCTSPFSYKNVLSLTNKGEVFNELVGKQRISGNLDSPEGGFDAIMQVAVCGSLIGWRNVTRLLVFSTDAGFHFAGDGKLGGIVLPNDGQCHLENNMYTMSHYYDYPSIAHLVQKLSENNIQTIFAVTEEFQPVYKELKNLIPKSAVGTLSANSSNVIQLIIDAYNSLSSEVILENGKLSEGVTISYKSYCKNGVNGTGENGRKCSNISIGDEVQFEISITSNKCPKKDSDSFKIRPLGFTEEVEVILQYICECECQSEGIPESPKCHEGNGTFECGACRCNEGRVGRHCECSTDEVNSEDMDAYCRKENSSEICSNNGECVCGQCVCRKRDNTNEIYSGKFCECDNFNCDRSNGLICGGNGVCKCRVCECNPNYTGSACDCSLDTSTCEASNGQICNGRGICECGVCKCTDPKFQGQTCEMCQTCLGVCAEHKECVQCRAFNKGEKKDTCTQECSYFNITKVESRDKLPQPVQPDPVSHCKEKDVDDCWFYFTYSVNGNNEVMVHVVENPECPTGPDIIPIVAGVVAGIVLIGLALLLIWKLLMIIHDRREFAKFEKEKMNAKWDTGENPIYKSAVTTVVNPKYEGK

SMILES: CCC(CC)(C(=O)N[C@@H](Cc1ccc(OCc2c(Cl)cccc2Cl)cc1)C(=O)O)C(=O)N1CCC[C@@H]1C(N)=O [Example 70]
- IC50 (integrin α4β1): 20 to 100 nM
- IC50 (integrin α4β7): < 20 nM

SMILES: CCC(CC)(C(=O)N[C@@H](Cc1ccc(NC(=O)c2nc(NC)ncc2Cl)cc1)C(=O)O)C(=O)N1CCCC1 [Example 484]
- IC50 (integrin α4β1): 20 to 100 nM
- IC50 (integrin α4β7): < 20 nM

SMILES: CCC(CC)(C(=O)N[C@@H](Cc1ccc(OCc2c(Cl)cccc2Cl)cc1)C(=O)O)C(=O)N1CCC[C@H]1C(=O)NC [Example 72]
- IC50 (integrin α4β1): 20 to 100 nM
- IC50 (integrin α4β7): < 20 nM

SMILES: CCC(CC)(C(=O)N[C@@H](Cc1ccc(NC(=O)c2cc(Br)ccc2Cl)cc1)C(=O)O)C(=O)N1CCCC1 [Example 96]
- IC50 (integrin α4β1): 20 to 100 nM
- IC50 (integrin α4β7): < 20 nM

SMILES: CCC(CC)(C(=O)N[C@@H](Cc1ccc(OCc2c(Cl)cccc2Cl)cc1)C(=O)O)C(=O)N1CCC(C(N)=O)CC1 [Example 39]
- IC50 (integrin α4β1): 100 to 2000 nM
- IC50 (integrin α4β7): 20 to 100 nM

SMILES: CCC(CC)(C(=O)N[C@@H](Cc1ccc(OCc2c(Cl)cccc2Cl)cc1)C(=O)O)C(=O)N1CC[C@@H](NC(C)=O)C1 [Example 54]
- IC50 (integrin α4β1): 20 to 100 nM
- IC50 (integrin α4β7): < 20 nM

SMILES: CCC(CC)(C(=O)NC(Cc1ccc(OCc2c(Cl)cccc2Cl)cc1)C(=O)O)C(=O)N1CCCC(CO)C1 (mixture of isomers) [Example 60]
- IC50 (integrin α4β1): 100 to 2000 nM
- IC50 (integrin α4β7): 100 to 2000 nM

SMILES: CN(C)C(=O)C1(C(=O)N[C@@H](Cc2ccc(NC(=O)c3c(Cl)cccc3Cl)cc2)C(=O)O)CC1 [Example 90, N-[1-(N,N-dimethylaminocarbonyl)-cyclopropane-1-ylcarbonyl]-4-{[2,6-dichlorophenylcarbonyl]amino}-L-phenylalanine]
- IC50 (integrin α4β1): 100 to 2000 nM
- IC50 (integrin α4β7): 20 to 100 nM

SMILES: CCC(CC)(C(=O)N[C@@H](Cc1ccc(NC(=O)c2c(F)cccc2C(F)(F)F)cc1)C(=O)O)C(=O)N1CCCC1 [Example 92, N-(2-pyrrolidine-1-ylcarbonyl-2-ethyl-butanoyl)-4-({[2-fluoro-6-(trifluoromethyl)phenyl]carbonyl}amino)-L-phenylalanine]
- IC50 (integrin α4β1): 20 to 100 nM
- IC50 (integrin α4β7): < 20 nM

SMILES: CCC(CC)(C(=O)N[C@@H](Cc1ccc(OCc2c(Cl)cccc2Cl)cc1)C(=O)O)C(=O)N1CCC[C@H]1COC [Example 50]
- IC50 (integrin α4β1): 100 to 2000 nM
- IC50 (integrin α4β7): 20 to 100 nM

SMILES: CCC(CC)(C(=O)N[C@@H](Cc1ccc(NC(=O)c2nc(N3CCCCC3)ncc2Cl)cc1)C(=O)O)C(=O)N1CCCC1 [Example 482]
- IC50 (integrin α4β1): 100 to 2000 nM
- IC50 (integrin α4β7): < 20 nM

The next lines start with the values.

- IC50 (integrin α4β1): 100 to 2000 nM
- IC50 (integrin α4β7): 20 to 100 nM
SMILES: CN(C)C(=O)C1(C(=O)N[C@@H](Cc2ccc(NC(=O)c3cc(Br)ccc3Cl)cc2)C(=O)O)CC1 [Example 87]

- IC50 (integrin α4β1): 100 to 2000 nM
- IC50 (integrin α4β7): 20 to 100 nM
SMILES: CCC(CC)(C(=O)N[C@@H](Cc1ccc(-n2c(=O)c3ccccc3n(Cc3ccc4ccccc4c3)c2=O)cc1)C(=O)O)C(=O)N1CCCC1 [Example 100]

- IC50 (integrin α4β1): 20 to 100 nM
- IC50 (integrin α4β7): < 20 nM
SMILES: CCC(CC)(C(=O)N[C@@H](Cc1ccc(NC(=O)c2nc(N3CCCC3)ncc2Cl)cc1)C(=O)O)C(=O)N1CCCC1 [Example 481]

- IC50 (integrin α4β1): 100 to 2000 nM
- IC50 (integrin α4β7): 20 to 100 nM
SMILES: CCC(CC)(C(=O)N[C@@H](Cc1ccc(-n2c(=O)c3ccccc3n(CC=Cc3ccccc3)c2=O)cc1)C(=O)O)C(=O)N1CCCC1 [Example 101]

- IC50 (integrin α4β1): 100 to 2000 nM
- IC50 (integrin α4β7): < 20 nM
SMILES: O=C(O)[C@H](Cc1ccc(OCc2c(Cl)cccc2Cl)cc1)NC(=O)C1(C(=O)N2CC[C@@H](O)C2)CCOCC1 [Example 467]

- IC50 (integrin α4β1): 100 to 2000 nM
- IC50 (integrin α4β7): < 20 nM
SMILES: CCC(CC)(C(=O)N[C@@H](Cc1ccc(OCc2c(Cl)cccc2Cl)cc1)C(=O)O)C(=O)N1C[C@@H](O)[C@@H](O)C1 [Example 81, N-(2-{[(cis-3,4-dihydroxypyrrolidine)-1-yl]carbonyl}-2-ethyl-butanoyl)-O-(2,6-dichlorobenzyl)-L-tyrosine]

- IC50 (integrin α4β1): 100 to 2000 nM
- IC50 (integrin α4β7): 20 to 100 nM
SMILES: CCC(CC)(C(=O)N[C@@H](Cc1ccc(OCc2c(Cl)cccc2Cl)cc1)C(=O)O)C(=O)N1CCC[C@H]1C(N)=O [Example 67]

- IC50 (integrin α4β1): 20 to 100 nM
- IC50 (integrin α4β7): < 20 nM
SMILES: CCC(CC)(C(=O)N[C@@H](Cc1ccc(NC(=O)c2nc(SC)ncc2Br)cc1)C(=O)O)C(=O)N1CCCC1 [Example 477]

- IC50 (integrin α4β1): 2000 to 10000 nM
- IC50 (integrin α4β7): 20 to 100 nM
SMILES: CCCC(CC)(C(=O)NC(Cc1ccc(OCc2c(Cl)cccc2Cl)cc1)C(=O)O)C(=O)N1CCCC1 (mixture of isomers) [Example 37]
